Laboratory results taken from EP4685136A1, “AMINO LIPID, AND LIPID NANOPARTICLES AND USE THEREOF” (Shenzhen MagicRNA Biotechnology Co., Ltd., priority 2023, dated 2024).

Legend:
[1] = Particle size and PDI of Luc-mRNA lipid nanoparticles (Nano-ZS ZEN3600, Malvern); format: physicochemical; conditions: LNP of amino lipid:DSPC:cholesterol:DMG-PEG2000 47.5:10:41:1.5 with Luc-mRNA; lipid to mRNA mass ratio about 40:1
Protocol: (§1) The amino lipid compound of the present invention (or DLin-MC3 or SM-102 (both purchased from AVT (Shanghai) Pharmaceutical Technology Co., Ltd.)), phospholipid lipid (DSPC), cholesterol, and PEGylated lipid (DMG-PEG2000) were mixed and dissolved in anhydrous ethanol at a molar ratio of 47.5:10:41:1.5. The resulting ethanol solution and citric acid buffer (50 mM, pH = 4.0) dissolved with Luc-mRNA (TriLink) were mixed in a microfluidic chip at a volume ratio of 1:3 using a microfluidic preparation system to prepare a crude solution of lipid nanoparticles, which was then dialyzed in 1X PBS at 4°C for 6 h using a dialysis cassette (Fisher, MWCO 20,000). The product was filtered through a 0.22 µm microporous filter membrane before use. The mass ratio of the amino lipid compound to luciferase mRNA (Luc mRNA) was about 40:1.
The particle size and PDI (polydispersity index) of the prepared lipid nanoparticles were measured by Nano-ZSZEN3600 (Malvern). 20 µL of lipid nanoparticle (LNP) solution was taken for particle size measurement, and cycled three times with each cycle for 30 s.

[2] = Encapsulation efficiency of Luc-mRNA lipid nanoparticles (Quant-iT RiboGreen RNA Kit); format: physicochemical; conditions: LNP of amino lipid:DSPC:cholesterol:DMG-PEG2000 47.5:10:41:1.5 with Luc-mRNA; lipid to mRNA mass ratio about 40:1
Protocol: as §1
The encapsulation efficiency was determined according to the standard procedure of the Quant-iT RiboGreen RNA Kit. Table 1 Characterization data of LNPs prepared using representative amino lipid compounds

primary BMDC cells = assay: Transfection of Luc mRNA lipid nanoparticles on primary BMDC cells (ONE-Glo luciferase readout); format: cell-based, C57BL/6 mice; conditions: expression intensity of Luc mRNA on BMDCs; 10 µL LNP per well, 20,000 cells per well, 12 hours
Protocol: (§2) Animal preparation: 6-week-old female C57BL/6 mice weighing about 20 g were selected and raised in an SPF-grade feeding room. Animal experiments were conducted strictly in accordance with the guidelines of the National Institutes of Health and animal ethics requirements.
Cell acquisition: C57BL/6 mice were sacrificed by cervical dislocation and immersed in 75% alcohol for 5 minutes for disinfection. The thigh and tibia of the mice were dissected and the attached muscles were removed to expose the bone. The bone marrow in the tibia was blown out with a 1 mL syringe filled with PBS. The obtained bone marrow was dispersed by blowing and filtered through a 50 µm filter mesh to remove impurities. Red blood cell lysis solution (3-4 mL) was added to the obtained filtrate and allowed to stand for 5 minutes. Then, the supernatant was removed by centrifugation at 800 g for 5 minutes. The obtained cells were placed in 1640 culture medium (containing 10% fetal bovine serum, 20 ng/mL GMCSF, 10 ng/mL IL4) for being resuspended, and inoculated into 6-well plates at a density of 100,000 cells/mL of culture medium. The plates were placed in a cell culture incubator containing 5% CO2 at 37°C, and the medium was half-changed every 2 days. On the seventh day, the suspended cells and loosely adherent cells were collected and inoculated into 96-well all-white ELISA plates at a density of 20,000 cells per well, with a culture medium volume of 100 µL.
Cell transfection: the lipid nanoparticles encapsulating luciferase mRNA were added to a 96-well all-white ELISA plate with spreaded primary cells, and the volume of mRNA lipid nanoparticles added to each well was controlled to be 10 µL. Then, the plate was placed in an incubator with 5% CO2 concentration at 37°C for 12 hours.
Transfection efficiency detection: 20 µL of substrate ONE-Glo™ Luciferase was added to each well of a 96-well all-white ELISA plate, and the assay was performed using a multifunctional microplate reader (Biorek SynergyH1) after 1 min. The expression intensity of Luc mRNA transfected on BMDCs by lipid nanoparticles (LNPs) composed of representative amino lipid compounds is shown in Table 2, with DLin-MC3 and SM0102 as controls. Table 2 Expression intensity of transfection of representative amino lipid compounds on BMDCs

C57BL/6 mice = assay: In vivo delivery of luciferase mRNA by intramuscular injection of LNPs (IVIS imaging); conditions: total fluorescence intensity, Luc mRNA LNP, 0.5 mg/kg mRNA, 12 hours
Protocol: Preparation of lipid nanoparticles: same as Example 36.
as §2
In vivo delivery: Five C57BL/6 mice were randomly selected from each group and injected with lipid nanoparticle solution at a dose of 0.5 mg/kg mRNA by intramuscular injection. Twelve hours later, 200 µL of 10 mg/mL D-luciferin potassium salt was injected into the peritoneal cavity of each mouse. Five minutes later, the mice were placed under an in vivo imaging system (IVIS-200, Xenogen) to observe the total fluorescence intensity of each mouse and take photos for recording. The expression intensity of Luc mRNA delivered by intramuscular injection of LNPs composed of representative amino lipid compounds is shown in Table 3, with DLin-MC3 and SM-102 as controls. Table 3 Expression intensity of Luc mRNA delivered by intramuscular injection of LNPs composed of representative amino lipids

Row | SMILES | Average particle size (nm) [1] | PDI [1] | Encapsulation efficiency (%) [2] | Luminescence intensity (primary BMDC cells) | Fluorescence intensity (C57BL/6 mice)
1 | CCCCCCC(COC(=O)CCCCC)OC(=O)CCCCCN(CCCCCC(=O)OC(CCCCCC)COC(=O)CCCCC)CCCOC(=O)CCCCCCN(C)C (centres unmarked) [E8LA6B6O3A6] | 108 nm | 0.07 | 97.6% | 2.8E+05 | 
2 | CCCCCCCCCCC(COC(=O)CCCCC)OC(=O)CCCCCN(CCCCCC(=O)OC(CCCCCCCCCC)COC(=O)CCCCC)CCCOC(=O)CCCCN(C)C (centres unmarked) [E12LA6B6O3A5] | 117 nm | 0.08 | 97.8% | 1.5 E+05 | 
3 | CCCCCCCCCCCC(=O)OCC(CCCCCC)OC(=O)CCCCCN(CCCO)CCCCCC(=O)OC(CCCCCC)COC(=O)CCCCCCCCCCC (centres unmarked) [E8LA12B6O3] | 72 nm | 0.09 | 95.67% |  | 
4 | CCCCCCCCCCCC(=O)OCC(CCCCCCCCCC)OC(=O)CCCCCN(CCCCCC(=O)OC(CCCCCCCCCC)COC(=O)CCCCCCCCCCC)CCCNC(=O)CCCN(C)C (centres unmarked) [E12LA12B6O3A11] | 132 nm | 0.09 | 95.6% | 1.4E+05 | 
5 | CCCCCCCCCCC(COC(=O)CCCCC)OC(=O)CCCCCN(CCCCCC(=O)OC(CCCCCCCCCC)COC(=O)CCCCC)CCCN(C)C (centres unmarked) [E12LA6B6O12] | 97 nm | 0.05 | 97.6% | 4.9 E+04 | 
6 | CCCCCCCCCCC(COC(=O)CCCCC)OC(=O)CCCCCN(CCCCCC(=O)OC(CCCCCCCCCC)COC(=O)CCCCC)CCCOC(=O)CCCN1CCN(C)CC1 (centres unmarked) [E12LA6B6O3A3] | 53 nm | 0.07 | 94.6% |  | 
7 | CCCCCCC(COC(=O)C(CCCCC)CCCCC)OC(=O)CCCCCN(CCCO)CCCCCC(=O)OC(CCCCCC)COC(=O)C(CCCCC)CCCCC (centres unmarked) [E8CA5B6O3] | 69 nm | 0.06 | 95.8% | 2.3E+05 | 
8 | CCCCCCCCCCCC(=O)OCC(CCCCCCCCCC)OC(=O)CCCCCN(CCCCCC(=O)OC(CCCCCCCCCC)COC(=O)CCCCCCCCCCC)CCCC(=O)O (centres unmarked) [E12LA12B6O30] | 127 nm | 0.03 | 98.2% |  | 
9 | CCCCCCCCCCC(COC(=O)CCCCC)OC(=O)CCCCCN(CCCCCC(=O)OC(CCCCCCCCCC)COC(=O)CCCCC)CCCOC(=O)CCN1CCN(C)CC1 (centres unmarked) [E12LA6B6O3A2] |  |  |  | 4.0E+05 | 
10 | CCCCCCCCCCC(CCCOC(=O)CCCCC)OC(=O)CCCCCN(CCCO)CCCCCC(=O)OC(CCCCCCCCCC)CCCOC(=O)CCCCC (centres unmarked) [K4LA6B6O3] | 120 nm | 0.06 | 98.9% | 4.9 E+05 | 
11 | CCCCCCCCCCC(COC(=O)CCCCC)OC(=O)CCCCCN(CCCCCC(=O)OC(CCCCCCCCCC)COC(=O)CCCCC)CCN1CCCCC1 (centres unmarked) [E12LA6B6O13] | 83 nm | 0.01 | 94.4% |  | 
12 | CCCCCCCCCCCC(=O)OCC(CCCCCCCCCC)OC(=O)CCCCCN(CCCC#N)CCCCCC(=O)OC(CCCCCCCCCC)COC(=O)CCCCCCCCCCC (centres unmarked) [E12LA12B6O31] | 130 nm | 0.04 | 98.4% | 9.6 E+04 | 
13 | CCCCCCCCCCC(COC(=O)CCCCC)OC(=O)CCCCCN(CCCCCC(=O)OC(CCCCCCCCCC)COC(=O)CCCCC)CCCOC(=O)CCCCCCN(C)C (centres unmarked) [E12LA6B6O3A6] | 103 nm | 0.07 | 98.5% |  | 1.5E+09
14 | CCCCCCCCCCC(COC(=O)CCCCC)OC(=O)CCCCCN(CCCCCC(=O)OC(CCCCCCCCCC)COC(=O)CCCCC)CCCOC(=O)CCN1CCCCC1 (centres unmarked) [E12LA6B6O3A8] | 124 nm | 0.06 | 95.3% | 1.9 E+05 | 
15 | CCCCCCCCCCC(COC(=O)CCCCC)OC(=O)CCCCCN(CCCCCC(=O)OC(CCCCCCCCCC)COC(=O)CCCCC)CCN1CCC(O)CC1 (centres unmarked) [E12LA6B6O15] | 90 nm | 0.12 | 95.2% |  | 
16 | CCCCCCCCCCC(COC(=O)CCCCC)OC(=O)CCCCCN(CCCCCC(=O)OC(CCCCCCCCCC)COC(=O)CCCCC)[C@H]1CC[C@H](O)CC1 (relative stereo) [E12LA6B6O10] | 102 nm | 0.10 | 93.0% |  | 1.6E+09
17 | CCCCCCCCCCCC(=O)OCC(CCCCCCCCCC)OC(=O)CCCCCN(CCCCCC(=O)OC(CCCCCCCCCC)COC(=O)CCCCCCCCCCC)CCCC(=O)NCCCN(C)C (centres unmarked) [E12LA12B6O30A10] | 117 nm | 0.08 | 91.8% | 4.1E+05 | 
18 | CCCCCCCCCCCC(=O)OCC(CCCCCCCCCC)OC(=O)CCCCCN(CCCO)CCCCCC(=O)OC(CCCCCCCCCC)COC(=O)CCCCCCCCCCC (centres unmarked) [E12LA12B6O3] | 73 nm | 0.09 | 97.5% | 4.1E+05 | 
19 | CCCCCCCCCCC(COC(=O)CCCCC)OC(=O)CCCCCN(CCCCCC(=O)OC(CCCCCCCCCC)COC(=O)CCCCC)CCCOC(=O)C1CCN(C)CC1 (centres unmarked) [E12LA6B6O3A7] | 110 nm | 0.05 | 96.5% | 7.3 E+04 | 
20 | CCCCCCCCCCC(COC(=O)CCCCC)OC(=O)CCCCCN(CCCCCC(=O)OC(CCCCCCCCCC)COC(=O)CCCCC)CCCOC(=O)CCN(C)C (centres unmarked) [E12LA6B6O3A4] | 80 nm | 0.03 | 90.7% |  | 
21 | CCCCCCCCCCC(COC(=O)CCCCC)OC(=O)CCCCCN(CCCCC)CCCCCC(=O)OC(CCCCCCCCCC)COC(=O)CCCCC (centres unmarked) [E12LA6B6O9] | 95 nm | 0.11 | 93.2% | 2.2 E+05 | 
22 | CCCCCCCCCCC(CNC(=O)CCCCC)NC(=O)CCCCCN(CCCO)CCCCCC(=O)NC(CCCCCCCCCC)CNC(=O)CCCCC (centres unmarked) [E12N2LA6B6O3] | 168 nm | 0.06 | 90.3% |  | 
23 | CCCCCCCCCCC(CCCCOC(=O)CCCCC)OC(=O)CCCCCN(CCCO)CCCCCC(=O)OC(CCCCCCCCCC)CCCCOC(=O)CCCCC (centres unmarked) [K5LA6B6O3] | 106 nm | 0.03 | 96.2% | 4.8E+05 | 
24 | CCCCCCCCCCCC(=O)OCC(CCCCCCCCCC)OC(=O)CCCCCN(CCCCCC(=O)OC(CCCCCCCCCC)COC(=O)CCCCCCCCCCC)CCCC(=O)OCCCN(C)C (centres unmarked) [E12LA12B6O30A9] | 121 nm | 0.14 | 92.4% | 2.7 E+05 | 
